According to the supplement of paper PMC6045584:
± gives the standard deviation of the averaged measurements.

How the values were obtained:
NILOTINIB = compound: Cc1cn(-c2cc(NC(=O)c3ccc(C)c(Nc4nccc(-c5cccnc5)n4)c3)cc(C(F)(F)F)c2)cn1 [NILOTINIB]; assay: surviving fraction relative to DMSO-only wells; higher = less growth inhibition; settings: exposure time: 5 days
Procedure, shortened: (§1)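 Five days of continuous inhibitor exposure, at 0.5, 1, 5, 10, 50, 100, 500 and 1000 nM, followed a 24-hour period after log-phase tumour cell lines were seeded at 250–500 cells per well in 384-well plates. Surviving fraction was derived from CellTiter-Glo luminescence relative to the median of DMSO-only wells. Plates were read after 10 minutes at room temperature, and lines screened three times were kept only if replicate Pearson r >0.7 and median Z' >0.3.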

BEZ-235 = compound: Cn1c(=O)n(-c2ccc(C(C)(C)C#N)cc2)c2c3cc(-c4cnc5ccccc5c4)ccc3ncc21 [BEZ-235]; assay: as above; settings: exposure time: 5 days
Procedure, shortened: as §1

Test System	surviving fraction (NILOTINIB; 0.5 nM)	surviving fraction (NILOTINIB; 1 nM)	surviving fraction (NILOTINIB; 5 nM)	surviving fraction (NILOTINIB; 10 nM)	surviving fraction (NILOTINIB; 50 nM)	surviving fraction (NILOTINIB; 100 nM)	surviving fraction (NILOTINIB; 500 nM)	surviving fraction (NILOTINIB; 1000 nM)	surviving fraction (BEZ-235; 0.5 nM)	surviving fraction (BEZ-235; 1 nM)	surviving fraction (BEZ-235; 5 nM)	surviving fraction (BEZ-235; 10 nM)	surviving fraction (BEZ-235; 50 nM)	surviving fraction (BEZ-235; 100 nM)	surviving fraction (BEZ-235; 500 nM)	surviving fraction (BEZ-235; 1000 nM)
MDAMB231 BREAST	0.935 ± 0.052	0.919 ± 0.025	0.866 ± 0.036	0.839 ± 0.038	0.763 ± 0.043	0.857 ± 0.017	0.923 ± 0.036	0.866 ± 0.039	1.01 ± 0.026	1.02 ± 0.034	1.01 ± 0.032	0.959 ± 0.037	0.574 ± 0.016	0.437 ± 0.019	0.231 ± 0.0068	0.227 ± 0.013
SG27 HEADNECK	1.13 ± 0.03	1.09 ± 0.087	1.02 ± 0.066	1.06 ± 0.063	1.11 ± 0.21	1.04 ± 0.056	1.17 ± 0.091	1.23 ± 0.051	0.989 ± 0.032	1.06 ± 0.041	0.888 ± 0.063	1.04 ± 0.049	0.91 ± 0.084	0.908 ± 0.065	0.717 ± 0.061	0.611 ± 0.04
SYO1 SYNOVIAL	0.9541 ± 0.0069	0.979 ± 0.064	0.97 ± 0.062	0.974 ± 0.036	0.936 ± 0.036	0.976 ± 0.056	0.805 ± 0.062	0.743 ± 0.032	1.02 ± 0.036	0.973 ± 0.054	0.942 ± 0.065	0.96 ± 0.023	0.705 ± 0.04	0.457 ± 0.017	0.196 ± 0.011	0.117 ± 0.0081
HUO3N1 BONE	0.993 ± 0.012	0.986 ± 0.048	1.12 ± 0.047	1.08 ± 0.038	0.985 ± 0.051	1 ± 0.041	1.005 ± 0.0097	0.936 ± 0.054	0.992 ± 0.041	1.04 ± 0.042	0.946 ± 0.025	0.994 ± 0.039	0.838 ± 0.071	0.631 ± 0.031	0.341 ± 0.0053	0.258 ± 0.0061
H23 LUNG	1.04 ± 0.077	1.05 ± 0.052	1.14 ± 0.025	1.08 ± 0.033	1.24 ± 0.096	1.26 ± 0.088	1.18 ± 0.094	1.17 ± 0.1	1.02 ± 0.051	1.04 ± 0.081	0.961 ± 0.057	0.903 ± 0.042	0.496 ± 0.055	0.382 ± 0.033	0.22 ± 0.015	0.194 ± 0.0072
ASKA SYNOVIAL	1.13 ± 0.033	1.02 ± 0.11	1.145 ± 0.0067	1.15 ± 0.036	1.08 ± 0.08	0.988 ± 0.088	0.936 ± 0.083	0.864 ± 0.066	1.06 ± 0.03	0.994 ± 0.023	0.896 ± 0.032	0.9767 ± 0.0031	0.775 ± 0.046	0.652 ± 0.016	0.418 ± 0.02	0.436 ± 0.019
PCI30 HEADNECK	0.952 ± 0.075	0.888 ± 0.045	1.04 ± 0.06	1.01 ± 0.05	0.921 ± 0.072	0.871 ± 0.056	1.08 ± 0.073	0.965 ± 0.063	0.955 ± 0.089	1.07 ± 0.066	1.07 ± 0.063	1.07 ± 0.082	0.83 ± 0.15	0.549 ± 0.011	0.343 ± 0.014	0.29 ± 0.014
T47D BREAST	1.02 ± 0.041	1.065 ± 0.0097	1.07 ± 0.025	1.04 ± 0.045	1.07 ± 0.051	1.06 ± 0.026	1.05 ± 0.041	1.08 ± 0.038	1.07 ± 0.034	1.05 ± 0.015	1.04 ± 0.019	1.02 ± 0.016	0.89 ± 0.015	0.7209 ± 0.0056	0.47 ± 0.016	0.312 ± 0.0077
COLO320DM LARGE INTESTINE	1.12 ± 0.059	1.04 ± 0.086	1.05 ± 0.13	1.08 ± 0.061	1.06 ± 0.095	0.961 ± 0.022	0.949 ± 0.024	0.764 ± 0.04	1.06 ± 0.059	1.12 ± 0.08	1.14 ± 0.074	1.06 ± 0.039	0.869 ± 0.07	0.692 ± 0.034	0.328 ± 0.018	0.192 ± 0.0043
HCC1806 BREAST	0.977 ± 0.016	0.97 ± 0.048	1.1 ± 0.14	1.02 ± 0.067	0.844 ± 0.088	0.755 ± 0.083	0.666 ± 0.044	0.781 ± 0.026	0.958 ± 0.16	0.986 ± 0.14	1.17 ± 0.085	1.15 ± 0.1	0.837 ± 0.016	0.662 ± 0.05	0.388 ± 0.036	0.317 ± 0.041
HSSYII SYNOVIAL	0.907 ± 0.018	1 ± 0.033	0.973 ± 0.015	0.987 ± 0.052	0.9 ± 0.061	0.954 ± 0.029	0.874 ± 0.029	0.785 ± 0.036	0.963 ± 0.072	0.921 ± 0.062	0.933 ± 0.012	0.88 ± 0.032	0.548 ± 0.017	0.38 ± 0.0082	0.165 ± 0.0072	0.129 ± 0.013
MFM223 BREAST	1.11 ± 0.085	1.15 ± 0.12	1.08 ± 0.058	1.08 ± 0.056	0.798 ± 0.048	0.931 ± 0.15	0.9 ± 0.11	0.912 ± 0.13	1.12 ± 0.069	1.13 ± 0.043	1.11 ± 0.06	1.15 ± 0.079	0.932 ± 0.071	0.588 ± 0.018	0.206 ± 0.018	0.179 ± 0.0092
MDAMB468 BREAST	0.908 ± 0.055	0.931 ± 0.043	0.935 ± 0.069	1.05 ± 0.024	0.927 ± 0.037	0.835 ± 0.0095	0.9353 ± 0.0015	0.927 ± 0.045	1.08 ± 0.038	1.11 ± 0.015	1.07 ± 0.06	1.13 ± 0.018	1.06 ± 0.093	0.885 ± 0.05	0.366 ± 0.03	0.247 ± 0.013
HCC78 LUNG	1.01 ± 0.092	0.993 ± 0.085	0.994 ± 0.055	1.1 ± 0.12	1.05 ± 0.09	1.1 ± 0.095	0.719 ± 0.085	0.525 ± 0.03	0.953 ± 0.086	0.943 ± 0.17	1.05 ± 0.23	1.09 ± 0.15	0.621 ± 0.18	0.393 ± 0.05	0.0757 ± 0.011	0.0527 ± 0.01
NCIH441 LUNG	1.08 ± 0.14	1.01 ± 0.024	1.11 ± 0.037	1.05 ± 0.043	0.986 ± 0.11	0.91 ± 0.17	0.874 ± 0.022	0.889 ± 0.064	1.16 ± 0.081	1.11 ± 0.1	1.1 ± 0.027	1.11 ± 0.11	1.21 ± 0.064	0.997 ± 0.1	0.527 ± 0.027	0.356 ± 0.061
CADOES1 SOFT TISSUE	1.02 ± 0.17	0.987 ± 0.05	1.01 ± 0.13	0.93 ± 0.071	0.932 ± 0.13	1.02 ± 0.045	0.963 ± 0.055	1.01 ± 0.057	0.965 ± 0.1	0.996 ± 0.098	0.897 ± 0.03	0.99 ± 0.078	0.531 ± 0.11	0.28 ± 0.063	0.128 ± 0.007	0.0853 ± 0.01
